The source of these data is BindingDB's records for doi:10.1021/acs.jmedchem.8b00605 (Leiden University, 2018).

Structures are written as SMILES.

This experiment addresses T1, C-C chemokine receptor type 1 (Homo sapiens, UniProt P32246).
T1 sequence (P32246 whole entry): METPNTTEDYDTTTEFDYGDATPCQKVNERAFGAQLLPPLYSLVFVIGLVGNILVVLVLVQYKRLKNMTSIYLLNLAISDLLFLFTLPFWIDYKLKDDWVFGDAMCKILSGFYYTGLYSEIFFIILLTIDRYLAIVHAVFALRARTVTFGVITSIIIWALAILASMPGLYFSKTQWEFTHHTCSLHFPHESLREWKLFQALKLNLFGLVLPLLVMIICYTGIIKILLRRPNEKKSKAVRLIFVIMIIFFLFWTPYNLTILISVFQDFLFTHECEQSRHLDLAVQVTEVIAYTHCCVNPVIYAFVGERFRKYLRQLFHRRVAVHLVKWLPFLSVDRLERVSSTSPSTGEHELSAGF
The experiment in a line: Displacement of [3H]-CCR2-RA-[R] from human TEV protease site linked CCR1 expressed in human U20S cell membranes co-expressing Gal4-VP16 transcription factor after 120 mins by scintillation spectrometry. In general terms: Displacement assays read how much labelled ligand stays bound in the presence of the test substance.

For the molecule `CC(=O)C1=C(O)C(=O)N(c2ccc(Br)cc2F)C1C1CCCCC1` (stereo unspecified), affinity was put at a Ki of 10 nM.
